Values quoted from earlier work, collected in patent EP4756025A1, “DSRNA TARGETING MAPT AND PHARMACEUTICAL USE THEREOF” (Tuojie Biotech (Shanghai) Co., Ltd., priority 2023, dated 2025).

Conditions: octanol-water partition coefficient, example in the definition of lipophilic moiety

SMILES | logKow
NCCCCCCO [6-aminohexanol] | about 0.7
CC(C)CCC[C@@H](C)[C@H]1CC[C@H]2[C@@H]3CC=C4C[C@@H](OC(=O)NCCCCCCO)CC[C@]4(C)[C@H]3CC[C@]12C [cholesteryl N-(hexan-6-ol)carbamate] | 10.7
